For one data set, the target named is T1, P2X7 receptor (Homo sapiens, UniProt Q99572).
T1 construct: host or cells: THP-1 cells differentiated with LPS and IFN-γ
T1 sequence (Q99572 1-595): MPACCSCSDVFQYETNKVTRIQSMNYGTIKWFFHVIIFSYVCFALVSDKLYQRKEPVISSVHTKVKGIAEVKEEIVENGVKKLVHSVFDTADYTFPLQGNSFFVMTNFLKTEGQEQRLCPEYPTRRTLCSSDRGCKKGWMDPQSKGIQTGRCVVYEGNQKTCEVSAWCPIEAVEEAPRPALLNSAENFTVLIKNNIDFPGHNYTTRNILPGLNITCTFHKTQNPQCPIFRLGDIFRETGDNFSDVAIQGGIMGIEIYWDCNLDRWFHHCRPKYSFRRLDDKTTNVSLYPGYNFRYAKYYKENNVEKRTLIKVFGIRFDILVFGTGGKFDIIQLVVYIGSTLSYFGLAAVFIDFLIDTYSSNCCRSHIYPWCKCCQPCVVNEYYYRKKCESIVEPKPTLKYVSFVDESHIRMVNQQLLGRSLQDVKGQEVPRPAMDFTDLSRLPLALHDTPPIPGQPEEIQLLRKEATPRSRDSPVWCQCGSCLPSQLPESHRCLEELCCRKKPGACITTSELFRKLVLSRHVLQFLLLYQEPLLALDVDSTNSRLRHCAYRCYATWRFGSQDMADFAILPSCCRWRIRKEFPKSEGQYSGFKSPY
Nature of the data set: IL-1β release assay in differentiated THP-1 cells (Example 9). The class given is cell-based. The conditions noted are these: THP-1 cells differentiated with LPS and IFN-γ; 30 min pretreatment; BzATP 250 uM; IL-1β by ELISA. The protocol:
THP-1 cells (ATCC Cat #285-IF-100) are plated in 96 well plates at a concentration of 200,000 cells per well and allowed to differentiate in RPMI-1640 media (ATCC Cat #30-2001) containing 10% FBS, 100 IU/mL penicillin, 100 ug/mL streptomycin, 100 ng/mL LPS and 100 ng/mL IFN-γ for 16 hours. Following differentiation, the cells are treated for an additional 2 hours in RPMI-1640 media containing 100 IU/mL penicillin, 100 ug/mL streptomycin and fresh LPS at 100 ng/mL. The cells are then pretreated for 30 minutes with the compound of interest at the appropriate concentration in RPMI media containing 100 IU/mL penicillin, 100 ug/mL streptomycin. Following the pretreatment 2′,3′-O-(4-benzoylbenzoyl)-adenosine 5′-triphosphate (Sigma Aldrich Cat # B6396) is added to a final concentration of 250 uM, and the cells are incubated for an additional 45 minutes. 30 uL of cell supernatant is then collected and IL-1β levels are determined via ELISA (R&D systems Cat. # HSLB50) according to manufacturer's recommendations using a Tecan Safire plate reader. Background adjusted IL-1β levels of drug treated and non-treated cells are used to calculate the percent inhibition.
The following compounds have been or can be prepared according to the synthetic methods described herein for example, methods A-AA1. The compounds set forth in Table 1 were tested for activity in a cellular model as described herein. Specifically, cells were pretreated with differing amounts of the compound under test and released IL-1β determined as in Example 9, above. Measurements were made and IC50 values, presented in Table 1, below, were determined by fitting the data to a four parameter logistic equation using GraphPad Prism software (GraphPad Software, Inc). The equation may be expressed by the following formula: Y=Bottom+(Top−Bottom)/(1+10^((Log EC50−X)*HillSlope)) where X is the logarithm of concentration, Y is the response and Y starts at Bottom and goes to Top with a sigmoid shape.
In general terms: ELISA stands for enzyme-linked immunosorbent assay.

A short description of data set [1]: Half-life in human liver microsomes (HLM). Format: in vitro ADME. To be noted: human liver microsomes 0.78 mg/mL, 1 μM compound, NADPH, 37° C.; for half-life at 1 μM: pH 7.4. A general note: Microsomes from liver hold many membrane-bound enzymes, among them those of drug oxidation.
Description: Half-Life in Human Liver Microsomes (HLM)
Test compounds (1 μM) are incubated with 3.3 mM MgCl2 and 0.78 mg/mL HLM (HL101) in 100 mM potassium phosphate buffer (pH 7.4) at 37° C. on the 96-deep well plate. The reaction mixture is split into two groups, a non-P450 and a P450 group. NADPH is only added to the reaction mixture of the P450 group. An aliquot of samples of P450 group is collected at 0, 10, 30, and 60 min time point, where 0 min time point indicated the time when NADPH is added into the reaction mixture of P450 group. […] Collected aliquots are extracted with acetonitrile solution containing an internal standard. […] The compound concentration in supernatant is measured by LC/MS/MS system.
The half-life value is obtained by plotting the natural logarithm of the peak area ratio of compounds/internal standard versus time. The slope of the line of best fit through the points yields the rate of metabolism (k). This is converted to a half-life value using following equations: Half-life=ln 2/k
Data set [2] in a line: Plasma protein binding by equilibrium dialysis, human plasma. To be noted: pH 7.4, equilibrium dialysis 16 hr at 37° C., % Bound. The class given is in vitro ADME. How it is done: The plasma protein binding of compounds of invention is measured in human and rat plasma, respectively. A stock solution of the tested compound is prepared in 1 mg/mL in DMSO solution. The stock solution is spiked into the blank plasma to get a final compound concentration at 1 μg/mL for testing. Equilibrium dialysis (The equilibrium dialyzer-96TM MWCO 5K Daltons, Harvard Apparatus) method is used for the testing purpose.
The compound spiked plasma (at […]) and phosphate buffer (0.1 M, pH 7.4), 200 μl each, are added into the opposite sides of the membrane in a 96-well equilibrium dialyzer, respectively. The dialyzer plate is covered and incubated overnight (16 hr) at 37° C. in the 8-plate rotor incubator (Big Shot III 8-plate rotor, Harvard Apparatus). Aliquots (100 μL) are taken from the plasma and the buffer compartments, respectively. The matrix effects are eliminated by adding the same volume of blank plasma into the samples from buffer compartments and adding the same volume of phosphate buffer into the samples from plasma compartments. The samples are extracted by using the regular (3:1) protein precipitation extraction procedure (acetonitrile with internal standard). The supernatants are taken for LC/MS/MS analysis. The percentage of plasma-protein binding can be calculated by using the following method: % Free=[Free Drug/Total Drug]*100=[(Peak Area)buffer/(Peak Area)plasma]*100 % Bound=100−% Free.
For the purpose of Table 4, the plasma protein binding of each compound is expressed as follows: […]
(Equilibrium dialysis compares concentrations on both sides of a semipermeable membrane.)

These results are taken from patent publication US8093265B2, “Bicycloheteroaryl compounds as P2X7 modulators and uses thereof” (Renovis, Inc., priority 2007, dated 2012).

Some results are limits rather than exact numbers.

Usually IC50 stands for the midpoint of a concentration-inhibition curve. One may read the fraction unbound as free concentration divided by total concentration. With `C[C@H](CO)n1ccc2c(NC(=O)Cc3ccc(F)c(C(F)(F)F)c3)c(Cl)ccc2c1=O` [Compound 13, N-[6-Chloro-2-((R)-2-hydroxy-1-methyl-ethyl)-1-oxo-1,2-dihydro-isoquinolin-5-yl]-2-(4-fluoro-3-trifluoromethyl-phenyl)-acetamide], the IC50 at P2X7 receptor amounted to 0.4 nM. For the same compound, the “Half Life” value in data set [1] turned out to be 1.0 h. The compound also showed a fraction unbound at 16 hr, 1 μg/mL in data set [2] of under 0.1.
For the compound `Cc1ccc2c(=O)n([C@H](C)CO)ccc2c1NC(=O)Cc1ccc(C(F)(F)F)c(F)c1` [Compound 21, N-[6-Methyl-2-((R)-2-hydroxy-1-methyl-ethyl)-1-oxo-1,2-dihydro-isoquinolin-5-yl]-2-(3-fluoro-4-trifluoromethyl-phenyl)-acetamide], the IC50 at P2X7 receptor worked out at 0.4 nM. The “Half Life” value in data set [1] was determined as 1.5 h. In data set [2], this compound registered a fraction unbound at 16 hr, 1 μg/mL of under 0.1.
By half-life is commonly meant the time in which the quantity being followed falls by half. A high value points to slow decline. In the case of `Cc1ccc2c(=O)n([C@H](C)CO)ccc2c1NC(=O)Cc1cccc(C(F)(F)F)c1F` [Compound 23, 2-(2-Fluoro-3-trifluoromethyl-phenyl)-N-[2-((R)-2-hydroxy-1-methyl-ethyl)-6-methyl-1-oxo-1,2-dihydro-isoquinolin-5-yl]-acetamide], the 50% inhibitory concentration (IC50) at P2X7 receptor worked out at 11 nM. The compound further showed a half-life at 1 μM in data set [1] of 1.4 h. In addition, the fraction unbound at 16 hr, 1 μg/mL in data set [2] was under 0.1.
For `Cc1ccc2c(=O)n([C@H](C)CO)ccc2c1NC(=O)Cc1ccc(C(F)(F)F)cc1` [Compound 25, N-[2-((R)-2-Hydroxy-1-methyl-ethyl)-6-methyl-1-oxo-1,2-dihydro-isoquinolin-5-yl]-2-(4-trifluoromethyl-phenyl)-acetamide], the IC50 on P2X7 receptor is 6 nM. In data set [1], this compound had a half-life at 1 μM of 4.6 h. For the same compound, the fraction unbound at 16 hr, 1 μg/mL in data set [2] lay within 0.1 to 0.24.
Consider `Cc1ccc2c(=O)n(CCO)ccc2c1NC(=O)Cc1ccc(C(F)(F)F)c(F)c1` [Compound 28, 2-(3-Fluoro-4-trifluoromethyl-phenyl)-N-[2-(2-hydroxy-ethyl)-6-methyl-1-oxo-1,2-dihydro-isoquinolin-5-yl]-acetamide], for which the IC50 at P2X7 receptor was 9 nM. The “Half Life” value in data set [1] came out at 3.7 h. In data set [2], the fraction unbound at 16 hr, 1 μg/mL was under 0.1.
In the case of `Cc1ccc2c(=O)n([C@H](C)CO)ccc2c1C(=O)NCc1ccc(C(F)(F)F)c(F)c1` [Compound 40, 2-((R)-2-Hydroxy-1-methyl-ethyl)-6-methyl-1-oxo-1,2-dihydro-isoquinoline-5-carboxylic acid 3-fluoro-4-trifluoromethyl-benzylamide], the concentration for half-maximal inhibition (IC50) on P2X7 receptor turned out to be 3 nM. In addition, the half-life at 1 μM in data set [1] was 2.6 h. For the same compound, the fraction unbound at 16 hr, 1 μg/mL in data set [2] lay within 0.1 to 0.24.
On the same counts, the results for `C[C@H](CO)n1ccc2c(C(=O)NCc3ccc(C(F)(F)F)c(F)c3)c(Cl)ccc2c1=O` [Compound 41, 6-Chloro-2-((R)-2-hydroxy-1-methyl-ethyl)-1-oxo-1,2-dihydro-isoquinoline-5-carboxylic acid 3-fluoro-4-trifluoromethyl-benzylamide] are 7 nM, 3 h and under 0.1.
For `Cc1ccc2c(=O)n([C@H](C)CO)ccc2c1C(=O)NCc1cccc(C(F)(F)F)c1` [Compound 42, 2-((R)-2-Hydroxy-1-methyl-ethyl)-6-methyl-1-oxo-1,2-dihydro-isoquinoline-5-carboxylic acid 3-trifluoromethyl-benzylamide], the IC50 on P2X7 receptor amounted to 7 nM. The same compound gave a half-life at 1 μM in data set [1] of 0.8 h. The compound also gave a fraction unbound at 16 hr, 1 μg/mL in data set [2] of under 0.1.
Consider `C[C@H](CO)n1ccc2c(C(=O)NCC3(O)CCC(C(F)(F)F)CC3)c(Cl)ccc2c1=O` (stereo partly drawn) [Compound 56, 6-Chloro-2-((R)-2-hydroxy-1-methyl-ethyl)-1-oxo-1,2-dihydro-isoquinoline-5-carboxylic acid (1-hydroxy-4-trifluoromethyl-cyclohexylmethyl)-amide], for which the IC50 at P2X7 receptor was found to be 9 nM. Besides, the half-life at 1 μM in data set [1] is 0.7 h. This compound also gave a fraction unbound at 16 hr, 1 μg/mL in data set [2] of 0.25 to 0.49.
Consider `Cc1ccc2c(=O)n([C@H](C)CN3CC(O)C3)ccc2c1NC(=O)Cc1ccc(C(F)(F)F)c(F)c1` [Compound 64, 2-(3-Fluoro-4-trifluoromethyl-phenyl)-N-{2-[(R)-2-(3-hydroxy-azetidin-1-yl)-1-methyl-ethyl]-6-methyl-1-oxo-1,2-dihydro-isoquinolin-5-yl}-acetamide], for which the IC50 on P2X7 receptor came to 9 nM. Besides, the fraction unbound at 16 hr, 1 μg/mL in data set [2] was 0.1 to 0.24.
Consider `C[C@H](CO)n1ccc2c(C(=O)NCC3(O)CCC4(CC3)CC4(F)F)c(Cl)ccc2c1=O` (stereo partly shown) [Compound 65], for which the IC50 on P2X7 receptor was determined as 0.3 nM. The half-life at 1 μM in data set [1] is 0.62 h. In data set [2], this compound showed a fraction unbound at 16 hr, 1 μg/mL of 0.25 to 0.49.
For `Cc1ccc2c(=O)n([C@H](C)CN3CC[C@@H](N)C3)ccc2c1NC(=O)Cc1ccc(C(F)(F)F)c(F)c1` [Compound 67], the IC50 at P2X7 receptor is 2 nM. Besides, the fraction unbound at 16 hr, 1 μg/mL in data set [2] is 0.1 to 0.24.
Take `C[C@H](CO)n1ccc2c(C(=O)NCC3(O)CCC(F)(F)CC3)c(Cl)ccc2c1=O` [Compound 68]: the IC50 at P2X7 receptor amounted to 3 nM. In data set [1], the half-life at 1 μM was 0.65 h. In data set [2], this compound displayed a fraction unbound at 16 hr, 1 μg/mL of 0.25 to 0.49.
